From article PMC11842024, “Reversible male contraception by targeted inhibition of serine/threonine kinase 33” (Science (New York, N.Y.), 2024)
Where two headings read alike, the source gives them in different places.

Legend:
[1] = Pharmacokinetics (PK) of CDD-2807 in mice; type: in vivo; settings: plasma; for AUC(0-inf) / AUC(0-t) / Cmax / Tmax / MRT inf / half-life: male, C57BL/6NJ, mouse; for MRT inf: read-out: MRT0-∞
Method: Pharmacokinetics (PK) of CDD-2807 in mice. The pharmacokinetic studies (72) of CDD-2807 were performed at three doses via intraperitoneal (i.p.) injection and oral (p.o.) administration.
CDD-2807 was dissolved in 10% Captisol containing 5% DMSO to prepare the solutions of 0.5 mg/mL, 2.5 mg/mL and 5.0 mg/mL. Twelve male mice (strain: C57BL/6NJ, 8−12 weeks) were divided equally and randomly into 4 groups (n = 3 for each dose). One group of mice were administered 5 mg/kg CDD-2807 (i.p., 10 µL/g of 0.5 mg/mL solution), the second group 25 mg/kg CDD-2807 (i.p., 10 µL/g of 2.5 mg/mL solution), the third group 5 mg/kg CDD-2807 (p.o., 10 µL/g of 0.5 mg/mL solution), and the fourth group 50 mg/kg CDD-2807 (p.o., 10 µL/g of 5.0 mg/mL solution). At 0, 5, 10, 15, 30 min, 1, 2, 4, 6, 8, 24 h post-dose, around 20 µL of blood was collected from the tail vein and anti-coagulated by heparin. The blood samples were centrifuged at 2000 g for 3 min at 4°C, and the plasma samples were transferred to tubes and stored at −80°C before analysis. All the samples were analyzed by the Thermo TSQ Quantis MS coupled with a Thermo Vanquish UHPLC (San Jose, CA). CDD-2807 was separated on a Luna C18 column (1 mm × 50 mm, 1.6 µm, Phenomenex, Torrance, CA), and eluted by a water-acetonitrile mobile phase system (both containing 0.1% formic acid, v/v) at the flow rate of 0.15 mL/min. CDD-2807 was monitored under the SRM mode coupled with a positive ESI source. The SRM ion pairs were 447→321 for CDD-2807. The ion spray voltage was set at 3500 V. High-purity nitrogen was used as the sheath gas (35 arbitrary unit), auxiliary gas (7 arbitrary unit), and high-purity argon was used as the collision gas. The temperatures of the ion transfer tube and the vaporizer were set at 300°C and 275°C, respectively. The concentration of CDD-2807 in plasma was quantified using individual calibration curves. The calibration curve was regressed with a weight of 1/x2 with high linearity (r2 >0.99). PK parameters, including half-time (t1/2), area under the plasma concentration– time curve from zero to infinity (AUC0–∞), clearance normalized by the bioavailability (CL/F), volume of distribution normalized by the bioavailability (Vd/F), and the mean residence time (MRT), were calculated by WinNonlin software (Certara, Princeton, NJ) by noncompartmental analysis. The plasma concentration–time curves were plotted in GraphPad Prism 9 (San Diego, […]

[2] = Alanine transaminase (ALT) and aspartate transaminase (AST) assays in serum; type: in vivo, mice
Method: Alanine transaminase (ALT) and aspartate transaminase (AST) assays. On day 45 of protocol 1 and day 7 and day 63 of protocol 2, three mice from each protocol were euthanized, and blood was collected through cardiac puncture. The serum was isolated by centrifuging the whole blood samples at 1500 g for 10 min and then maintained on wet ice before analysis. ALT and AST levels were measured in duplicates using assay kits (StanBio, Boerne, TX) according to the manufacturer's instructions. ALT and AST levels were determined using the rate of NADH oxidation, which was quantified by measuring absorbance at 340 nm using a CLARIOstar plate reader (BMG Labtech in Cary, NC). ALT and AST were tested for significance at multiple collection time points, tests for significance included a test for normality (Shapiro-Wilk test) and following the test for normality were then analyzed using an unpaired t-test with significance determined by an alpha of P = 0.05. […]
any significant differences between groups.
Fertility analysis. Sexually mature male C57/129 hybrid mice were randomly assigned to either the vehicle control treatment or the CDD-2807 treatment groups. Drug formulation and injections were as follows: for protocol 1 mice receiving the 15 mg/kg CDD-2807 twice daily dosing had the compound dissolved in DMSO, which was injected at 5% of the final volume in 10% Captisol and water. For protocol 2 mice receiving a single daily dose of 50 mg/kg CDD-2807, the compound was dissolved in DMSO and injected at 5% in 20% Captisol and water. All injections were administered as i.p. injections, and for the 15 mg/kg CDD-2807 and DMSO control mice, the injections were delivered in the morning and the evening. Mice in the 50 mg/kg dosing received i.p. injections once in the evening. Weights were measured daily prior to drug administration and monitored throughout the entirety of the injection period. […]

STK33 = STK33 (Homo sapiens, UniProt Q9BYT3); experiment: LanthaScreen binding assay (ThermoFisher SelectScreen); design: purchased SelectScreen Services (ThermoFisher)
Chain of STK33 (Q9BYT3 whole entry): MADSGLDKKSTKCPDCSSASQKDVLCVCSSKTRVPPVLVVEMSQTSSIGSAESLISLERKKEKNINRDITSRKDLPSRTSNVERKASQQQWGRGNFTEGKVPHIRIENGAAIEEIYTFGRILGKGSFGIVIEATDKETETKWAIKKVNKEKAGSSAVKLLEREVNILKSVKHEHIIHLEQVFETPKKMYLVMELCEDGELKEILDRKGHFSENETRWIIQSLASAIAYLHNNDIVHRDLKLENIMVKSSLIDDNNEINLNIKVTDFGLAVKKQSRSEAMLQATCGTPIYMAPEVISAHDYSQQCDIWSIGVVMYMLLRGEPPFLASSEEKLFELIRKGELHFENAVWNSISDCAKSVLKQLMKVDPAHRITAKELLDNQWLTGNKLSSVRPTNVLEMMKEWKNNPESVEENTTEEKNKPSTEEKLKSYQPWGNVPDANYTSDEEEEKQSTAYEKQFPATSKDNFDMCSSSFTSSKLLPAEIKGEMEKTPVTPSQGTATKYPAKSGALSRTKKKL
Source text: In vitro biochemical assays. Several small molecule assays were outsourced to SelectScreen Services (ThermoFisher) for STK33 and for off-target kinases (data sets are available on demand).
These assays are LanthaScreen (binding assay) and Z’-LYTE (activity assay). Dose-responses were done with at least 5 different concentrations in duplicates, and parameters were optimized by calculations described below and provided with standard errors.
Calculation of Kd values for kinase inhibitors that bind to the ATP pocket of a kinase from LanthaScreen binding data. DynaFit (71) was used to fit complex equilibria where a tracer is displaced by a dilution series of a kinase inhibitor. This method relies on the concentration of inhibitor, as well as the concentration of kinase and tracer, and Kd of the tracer. The latter three parameters are tabulated by ThermoFisher for each kinase in the LanthaScreen assay panel. […]
Since Kd and Ki values are defined the same way, in other words, Kd = [E] [I] / [EI] = Ki, Kd and Ki values can be compared. […]

[3] = po, p.o. administration 5 mg/kg
[4] = po, p.o. administration 50 mg/kg

O=C(c1ccc2[nH]nc(C#Cc3ccccc3-c3ccccc3)c2c1)N1CC2(CCCNC2)C1 [CDD-2807]
AUC(0-inf) ([1]; ip, i.p. injection 5 mg/kg): 11.2 ± 1.11 µM·h | AUC(0-t) ([1]; ip, i.p. injection 5 mg/kg): 9.46 ± 1.47 µM·h | Cmax ([1]; ip, i.p. injection 5 mg/kg): 2950 ± 640 nM | Tmax ([1]; ip, i.p. injection 5 mg/kg): 0.33 ± 0.14 h | MRT inf ([1]; ip, i.p. injection 5 mg/kg): 11.1 ± 4.43 h | half-life ([1]; ip, i.p. injection 5 mg/kg, read-out: t1/2 (converted)): 11.9 ± 4.38 h | AUC(0-inf) ([1]; ip, i.p. injection 25 mg/kg): 67.7 ± 12.4 µM·h | AUC(0-t) ([1]; ip, i.p. injection 25 mg/kg): 55.5 ± 5.42 µM·h | Cmax ([1]; ip, i.p. injection 25 mg/kg): 11900 ± 400 nM | Tmax ([1]; ip, i.p. injection 25 mg/kg): 0.33 ± 0.14 h | MRT inf ([1]; ip, i.p. injection 25 mg/kg): 12.2 ± 3.8 h | half-life ([1]; ip, i.p. injection 25 mg/kg, read-out: t1/2 (converted)): 11.3 ± 3.41 h | half-life ([1]; ip, delivered intraperitoneally, read-out: plasma t1/2): > 11 h | AUC(0-inf) [1, 3]: 1.85 ± 0.66 µM·h | AUC(0-t) [1, 3]: 0.71 ± 0.07 µM·h | Cmax [1, 3]: 60 ± 20 nM | Tmax [1, 3]: 1.03 ± 0.96 h | MRT inf [1, 3]: 51.2 ± 28.9 h | half-life ([1]; po, p.o. administration 5 mg/kg, read-out: t1/2 (converted)): 36.1 ± 19.9 h | AUC(0-inf) [1, 4]: 2.47 ± 0.34 µM·h | AUC(0-t) [1, 4]: 1.88 ± 0.36 µM·h | Cmax [1, 4]: 180 ± 90 nM | Tmax [1, 4]: 2.67 ± 1.15 h | MRT inf [1, 4]: 16.5 ± 2.8 h | half-life ([1]; po, p.o. administration 50 mg/kg, read-out: t1/2 (converted)): 12.6 ± 1.5 h | CL/F ([1]; p.o. administration 5 mg/kg): 2.91 ± 0.87 mg/h/µM/kg | Vd/F ([1]; p.o. administration 5 mg/kg): 134.88 ± 26.14 mg/µM/kg | CL/F ([1]; p.o. administration 50 mg/kg): 20.52 ± 3.02 mg/h/µM/kg | Vd/F ([1]; p.o. administration 50 mg/kg): 376.76 ± 89.83 mg/µM/kg | ALT ([2]; Protocol 1, 45 Days): 20.33 ± 5.30 IU/L | AST ([2]; Protocol 1, 45 Days): 35.80 ± 3.09 IU/L | ALT ([2]; Protocol 2, 7 Days): 23.65 ± 2.50 IU/L | AST ([2]; Protocol 2, 7 Days): 21.66 ± 3.30 IU/L | ALT ([2]; Protocol 2, 63 Days): 45.97 ± 11.04 IU/L | AST ([2]; Protocol 2, 63 Days): 29.76 ± 6.79 IU/L | Kd (STK33): 0.02 nM
